Experimental data as given in US4611001A, “Antimycotic pyrazolotetrathiepins” (E. I. Du Pont de Nemours and Company, priority 1985, dated 1986).
Converted amounts (≈) assume the structure as drawn. One block for each compound: values may come before it.

Key:
[1] = tested on: Candida albicans (CAND-2); assay: Protocol 4: microtiter broth dilution MIC, Yeast Nitrogen Base broth pH 7.0; type: cell-based, C. albicans ATCC e10231; conditions: for MIC: Candida albicans
Text: (§1) The fused pyrazolotetrathiepins of the invention are useful as antimycotic agents. The data is a result of different state of the art protocols, which employ either agar dilution or microtiter broth dilution techniques.
(§2) The test organisms used are two yeasts, Candida albicans ATCC 11651 (CAND-1), C. albicans ATCC e10231 (CAND-2) and two dermatophyte strains. Microsporum gypseum ATCC e9083 (MICRO-1) and Trichophyton rubrum ATCC 18756 (TRICH-1). These organisms are standardized to a concentration of 10^7 organisms/mL, aliquoted and frozen at -70°.
(§3) The compounds are dissolved in dimethyl sulfoxide (DMSO) and tested at specific concentrations required for the particular assay.
(§4) Appropriate standards are included with each assay. Their minimal inhibitory concentrations (MIC) values are shown in Table 4 according to the particular protocol used. Stock solutions of standard agents are stored at -70° and diluted the day of the assay.
(§5) Protocols 4 and 5 both utilize a standard microtiter broth dilution method described by Barry (Antimicrobic Susceptibilty Test: Principles and Practices, Lea and Febiger, 1976) but each uses a different medium. Protocol 4 uses Yeast Nitrogen Base broth pH 7.0 [Shadomy, S. Applied Microbiology, 17, 871-877 (1969)] while protocol 5 uses EMEM broth pH 7.4. The test organisms, CAND-1 and CAND-2 are diluted in the appropriate broth to achieve an inoculum of 1×10^4 CFUs/mL.
(§6) The compounds are tested from 100 μg/mL-0.4 μg/mL in 10-two fold serial dilutions and the assay is incubated at 37°, 5% CO2 for 24 hrs. MFC's are then determined as previously described but the plates are incubated under the conditions appropriate for Candida spp.

[2] = tested on: Candida albicans (CAND-1); assay: Protocol 5: microtiter broth dilution MIC/MFC, EMEM broth pH 7.4; type: cell-based, Candida albicans ATCC 11651; conditions: for MIC: Candida albicans
Text: as §1, §2, §3, §4, §5, §6

[3] = tested on: Candida albicans (CAND-1); assay: Protocol 4: microtiter broth dilution MIC, Yeast Nitrogen Base broth pH 7.0; type: cell-based, Candida albicans ATCC 11651; conditions: for MIC: Candida albicans
Text: as §1, §2, §3, §4, §5, §6

[4] = tested on: Candida albicans (CAND-2); assay: Protocol 5: microtiter broth dilution MIC/MFC, EMEM broth pH 7.4; type: cell-based, C. albicans ATCC e10231; conditions: for MIC: Candida albicans
Text: as §1, §2, §3, §4, §5, §6

[5] = tested on: Candida albicans (CAND-1); assay: In vitro dilution MIC, protocol not given; type: cell-based, Candida albicans ATCC 11651; conditions: up to 100 μg/mL
Text: as §1, §2, §3
as §5, with “The test organisms, CAND-1 and CAND-2 are diluted in the appropriate broth to achieve an inoculum of 1×10^4 CFUs/mL.” left out
as §6

[6] = tested on: Trichophyton rubrum (TRICH-1); assay: Protocol 2: agar dilution MIC, Eagle's Minimum Essential Medium Agar (EMEM); type: cell-based, Trichophyton rubrum ATCC 18756; conditions: 168 h, Protocol 2, ambient temperature, seven days, read-out: MIC TRICH-1
Text: as §1, §2, §3, §4
(§7) Protocols 1 & 2 use a modification of the agar dilution method (Barry, A. L., The Antimicrobic Susceptibility Test: Principles and Practices, Lea and Febiger, 1976) with either Sabouraud dextrose agar (protocol 1) or Eagle's Minimum Essential Medium Agar (EMEM) (protocol 2).
(§8) The compound is tested at four specific concentrations within the range of 100 μg/mL-0.04 μg/mL and is incorporated directly into 20 mL molten agar (50°). The plates are then inoculated with the spore suspensions of MICRO-1 and TRICH-1 at 5×10^6 spores/mL using a multi point inoculator. The plates are incubated at ambient temperature for seven days and the MIC values determined.

[7] = tested on: Candida albicans (CAND-2); assay: In vitro dilution MIC, protocol not given; type: cell-based, C. albicans ATCC e10231; conditions: up to 100 μg/mL
Text: as §1, §2, §3
as §5, with “The test organisms, CAND-1 and CAND-2 are diluted in the appropriate broth to achieve an inoculum of 1×10^4 CFUs/mL.” left out
as §6

[8] = tested on: Microsporum gypseum (MICRO-1); assay: Protocol 2: agar dilution MIC, Eagle's Minimum Essential Medium Agar (EMEM); type: cell-based, Microsporum gypseum ATCC e9083; conditions: Nannizzia gypsea, 168 h; Protocol 2, ambient temperature, seven days; read-out: MIC MICRO-1
Text: as §1, §2, §3, §4, §7, §8

[9] = tested on: Trichophyton rubrum (TRICH-1); assay: Protocol 1: agar dilution MIC, Sabouraud dextrose agar; type: cell-based, Trichophyton rubrum ATCC 18756; conditions: 168 h, Protocol 1, ambient temperature, seven days, read-out: MIC TRICH-1
Text: as §1, §2, §3
(§9) Appropriate standards are included with each assay. Their minimal inhibitory concentrations (MIC) values are shown in Table 4 according to the particular protocol used. Stock solutions of standard agents are stored at -70° and diluted the day of the assay. […]
(§10) The compound is tested at four specific concentrations within the range of 100 μg/mL-0.04 μg/mL and is incorporated directly into 20 mL molten agar (50°). […] The plates are incubated at ambient temperature for seven days and the MIC values determined.

[10] = tested on: Microsporum gypseum (MICRO-1); assay: as above; type: cell-based, Microsporum gypseum ATCC e9083; conditions: Nannizzia gypsea, 168 h; Protocol 1, ambient temperature, seven days; read-out: MIC MICRO-1
Text: as §1, §2, §3, §9, §10

[11] = Protocol 4, mean of five determinations ± standard deviation, read-out: MIC CAND-2 of standards
[12] = Protocol 5, mean of five determinations ± standard deviation, read-out: MIC CAND-1 of standards
[13] = Protocol 4, mean of five determinations ± standard deviation, read-out: MIC CAND-1 of standards
[14] = Protocol 5, mean of five determinations ± standard deviation, read-out: MIC CAND-2 of standards
[15] = read-out: MIC CAND-2 of standards
[16] = read-out: MIC CAND-1 of standards
[17] = Protocol 4, mean of five determinations ± standard deviation
[18] = Protocol 5, mean of five determinations ± standard deviation

- MIC [1, 11]: 1.1 ± 0.4 µg/mL (≈ 8.52 µM)
- MIC [2, 12]: 1.1 ± 0.4 µg/mL (≈ 8.52 µM)
- MIC [3, 13]: 0.7 ± 0.2 µg/mL (≈ 5.42 µM)
- MIC [4, 14]: 1.3 ± 0.4 µg/mL (≈ 10.1 µM)
Structure (SMILES): Nc1nc(=O)[nH]cc1F [5-Fluorocytosine]

- MIC CAND-1 (in words) [5]: Inactive at 100 μg/mL
- MIC [6]: 0.2 µg/mL (≈ 0.64 µM)
- MIC CAND-2 (in words) [7]: Inactive at 100 μg/mL
- MIC [8]: 1 µg/mL (≈ 3.2 µM)
Structure (SMILES): CC1(C)SSSc2nn(-c3ccccc3)cc2S1 [Example 2, 2,2-Dimethyl-7-phenyl-1,3,4,5-pyrazolotetrathiepin]

- MIC ([1]; Protocol 4, 37°, 5% CO2, 24 hrs, read-out: MIC CAND-2): 6.3 µg/mL (≈ 25.2 µM)
- MIC ([2]; Protocol 5, 37°, 5% CO2, 24 hrs, read-out: MIC CAND-1): 3.2 µg/mL (≈ 12.8 µM)
- MIC [9]: 4 µg/mL (≈ 16 µM)
- MIC ([3]; Protocol 4, 37°, 5% CO2, 24 hrs, read-out: MIC CAND-1): 12.5 µg/mL (≈ 49.9 µM)
- MIC ([4]; Protocol 5, 37°, 5% CO2, 24 hrs, read-out: MIC CAND-2): 1.6 µg/mL (≈ 6.39 µM)
- MIC [10]: 4 µg/mL (≈ 16 µM)
Structure (SMILES): Cn1cc2c(n1)SSSC(C)(C)S2 [Example 5, 2,2-Dimethyl-7-methyl-1,3,4,5-pyrazolotetrathiepin]

More lines, now with the values behind:

Structure (SMILES): CC(=O)N1CCN(c2ccc(OCC3COC(Cn4ccnc4)(c4ccc(Cl)cc4Cl)O3)cc2)CC1 (centres unmarked) [Ketoconazole]
- MIC [1, 11]: 0.22 ± 0.04 µg/mL (≈ 0.414 µM)
- MIC [2, 12]: 0.3 ± 0.04 µg/mL (≈ 0.565 µM)
- MIC [3, 13]: 0.15 ± 0.1 µg/mL (≈ 0.282 µM)
- MIC [4, 14]: 0.2 ± 0.04 µg/mL (≈ 0.376 µM)

Structure (SMILES): Clc1ccc(COC(Cn2ccnc2)c2ccc(Cl)cc2Cl)c(Cl)c1 (centres unmarked) [Miconazole]
- MIC [1, 15]: 0.5 ± 0.2 µg/mL (≈ 1.2 µM)
- MIC [2, 16]: 0.5 ± 0.4 µg/mL (≈ 1.2 µM)
- MIC [3, 16]: 0.36 ± 0.12 µg/mL (≈ 0.865 µM)
- MIC [4, 15]: 0.5 ± 0.4 µg/mL (≈ 1.2 µM)

Structure (SMILES): C[C@@H]1[C@H](O)[C@@H](C)/C=C/C=C/CC/C=C/C=C/C=C/C=C/C(O[C@H]2O[C@H](C)[C@@H](O)[C@H](N)[C@@H]2O)CC2O[C@](O)(CC(O)C(O)CCC(O)CC(O)CC(O)CC(=O)O[C@H]1C)CC(O)C2C(=O)O (some centres unmarked) [Nystatin]
- MIC CAND-2 of standards [1, 17]: 5.0 ± 1.5 µg/mL
- MIC CAND-1 of standards [2, 18]: 5.0 ± 0 µg/mL
- MIC CAND-1 of standards [3, 17]: 6.0 ± 2.0 µg/mL
- MIC CAND-2 of standards [4, 18]: 4.5 ± 1.0 µg/mL
